The record followed here is ChEMBL document CHEMBL1128960, “Phosphonic acid and phosphinic acid tripeptides as inhibitors of glutathionylspermidine synthetase” (Bioorg Med Chem Lett, 1996).

In the first assay the target is T1, Glutathionylspermidine synthase (Crithidia fasciculata, UniProt P90518).
T1 sequence (P90518 whole entry): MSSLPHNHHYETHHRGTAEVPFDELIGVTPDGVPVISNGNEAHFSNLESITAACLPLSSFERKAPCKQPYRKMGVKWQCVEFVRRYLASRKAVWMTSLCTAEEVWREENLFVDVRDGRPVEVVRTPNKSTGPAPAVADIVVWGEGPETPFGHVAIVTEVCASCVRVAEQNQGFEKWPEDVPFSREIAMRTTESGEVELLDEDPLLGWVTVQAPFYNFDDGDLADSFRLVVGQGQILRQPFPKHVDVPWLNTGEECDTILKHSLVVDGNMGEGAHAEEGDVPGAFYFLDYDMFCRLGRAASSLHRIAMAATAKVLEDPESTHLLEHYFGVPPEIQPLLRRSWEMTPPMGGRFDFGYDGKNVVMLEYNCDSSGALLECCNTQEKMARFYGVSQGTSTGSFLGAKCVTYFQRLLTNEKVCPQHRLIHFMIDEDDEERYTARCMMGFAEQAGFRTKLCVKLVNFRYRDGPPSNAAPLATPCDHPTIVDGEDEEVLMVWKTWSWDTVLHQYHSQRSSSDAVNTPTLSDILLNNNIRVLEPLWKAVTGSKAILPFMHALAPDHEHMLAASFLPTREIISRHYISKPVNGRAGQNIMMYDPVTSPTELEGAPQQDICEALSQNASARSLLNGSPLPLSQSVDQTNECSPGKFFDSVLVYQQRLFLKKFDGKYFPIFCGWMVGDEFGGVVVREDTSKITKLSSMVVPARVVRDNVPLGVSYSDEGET
As to the kind of experiment: Compound was tested for linear non-competitive inhibitory activity against glutathionylspermidine synthetase.
As for `CC(C)[C@H](NC(=O)[C@@H](N)CCC(=O)O)C(=O)NCP(=O)(O)O`, the inhibition constant (Ki) was found to be 290 µM.

For the compound `CC(C)C[C@H](NC(=O)[C@@H](N)CCC(=O)O)C(=O)NCP(=O)(O)O`, the affinity corresponds to a Ki of 60 µM.

In another assay the target is T2, Glutathionylspermidine synthase (Crithidia fasciculata) (UniProt P90518).
T2 sequence (whole entry): T1 sequence (P90518 whole entry)
As to the kind of experiment: Compound was tested for inhibitory activity against glutathionyl spermidine synthetase in the presence of 5 mM glutathione and spermidine.
With `COC(=O)CCP(=O)(O)C(C)NC(=O)[C@@H](NC(=O)[C@@H](N)CCC(=O)O)C(C)C` (some centres undefined), the inhibition was found to be 15%.

The target in another assay is T2, Glutathionylspermidine synthase (Crithidia fasciculata). As to the kind of experiment: Compound was tested for inhibitory activity against glutathionylspermidine synthetase in the presence of 5 mM glutathione and spermidine.
As to `CC(C)[C@H](NC(=O)[C@@H](N)CCC(=O)O)C(=O)NCP(=O)(O)O`, the inhibition was 78%.

`CC(C)C[C@H](NC(=O)[C@@H](N)CCC(=O)O)C(=O)NCC(=O)CP(=O)(O)O`: the inhibition turned out to be 62%.

Take `COC(=O)CCP(=O)(O)CNC(=O)[C@@H](NC(=O)[C@@H](N)CCC(=O)O)C(C)C`: the inhibition came to 71%.

Regarding `CC(C)[C@H](NC(=O)[C@@H](N)CCC(=O)O)C(=O)NCC(N)CP(=O)(O)O` (some centres undefined), the inhibition came out at 10%.

For `CC(C)C[C@H](NC(=O)[C@@H](N)CCC(=O)O)C(=O)NCP(=O)(Oc1ccccc1)Oc1ccccc1`, the inhibition turned out to be 76%.

As to `CC(C)C[C@H](NC(=O)[C@@H](N)CCC(=O)O)C(=O)NCCCP(=O)(O)O`, the inhibition was 24%.

Turning to `CC(C)[C@H](NC(=O)[C@@H](N)CCC(=O)O)C(=O)NCP(C)(=O)O`, the inhibition worked out at 26%.

As for `CC(C)[C@H](NC(=O)[C@@H](N)CCC(=O)O)C(=O)NC[PH](=O)O`, the inhibition came out at 50%.

As for `CC(C)C[C@H](NC(=O)[C@@H](N)CCC(=O)O)C(=O)NCP(=O)(O)O`, the inhibition was determined as 86%.

Consider `CC(C)[C@H](NC(=O)[C@@H](N)CCC(=O)O)C(=O)NC(C)P(C)(=O)O` (some centres undefined), for which the inhibition turned out to be 14%.

Turning to `CC(C)[C@H](NC(=O)[C@@H](N)CCC(=O)O)C(=O)NCP(=O)(O)CCC(N)=O`, the inhibition was 11%.

The target is the same in the next assay. As to the kind of experiment: Compound was tested for inhibitory activity against glutathionylspermidine synthetase in the presence of 5 mM glutathione and spermidine; Not inhibition.
For `CC(C)[C@H](NC(=O)[C@@H](N)CCC(=O)O)C(=O)NCC(=O)CP(=O)(O)O`, the inhibition result was “No inhibition”.

Consider `CC(C)[C@H](NC(=O)[C@@H](N)CCC(=O)O)C(=O)NCCCP(=O)(O)O`, for which the inhibition entry was “No inhibition”.

For the compound `CC(C)C[C@H](NC(=O)[C@@H](N)CCC(=O)O)C(=O)Nc1ccc(CP(=O)(O)O)cc1`, the inhibition entry is “No inhibition”.

Turning to `CC(C)[C@H](NC(=O)[C@@H](N)CCC(=O)O)C(=O)NCC(O)CP(=O)(O)O` (some centres undefined), the inhibition entry was “No inhibition”.

As to `CC(C)[C@H](NC(=O)[C@@H](N)CCC(=O)O)C(=O)NCCP(=O)(O)O`, the inhibition entry is “No inhibition”.

A word on the Ki: it is the equilibrium dissociation constant of an inhibitor or competing ligand from its target. Lower therefore signals tighter binding. In general, inhibition refers to the change of the read-out against control, counted positive when it falls.
